Measurements as given in ChEMBL document CHEMBL5608203, “Design, synthesis and biological evaluation of a new series of imidazothiazole-hydrazone hybrids as dual EGFR and Akt inhibitors for NSCLC therapy” (Eur J Med Chem, 2024).

Assays:
[1] = Cytotoxicity against human CCD 19Lu cells incubated for 24 hrs by MTT assay; assay type: toxicity, cell-based
[2] = test system: A549; assay: cells; conditions: Homo sapiens, A549, 24 h
Description: Cytotoxicity against human A549 cells incubated for 24 hrs by MTT assay

[3] = test system: A549; assay: Induction of apoptosis in human A549 cells assessed as viable cells at IC50 incubated for 24 hrs by Annexin V-FITC/PI staining based flow cytometry (reference value: 96.48 %); assay type: functional
[4] = test system: A549; assay: Induction of apoptosis in human A549 cells assessed as early apoptotic cells at IC50 incubated for 24 hrs by Annexin V-FITC/PI staining based flow cytometry (reference value: 0.11 %); assay type: functional
[5] = test system: A549; assay: Induction of apoptosis in human A549 cells assessed as late apoptotic cells at IC50 incubated for 24 hrs by Annexin V-FITC/PI staining based flow cytometry (reference value: 1.36 %); assay type: functional
[6] = test system: A549; assay: Induction of apoptosis in human A549 cells assessed as necrotic cells at IC50 incubated for 24 hrs by Annexin V-FITC/PI staining based flow cytometry (reference value: 2.05 %); assay type: functional
[7] = test system: A549; assay: Induction of apoptosis in human A549 cells assessed as caspase-3-positive cells at IC50 incubated for 24 hrs by flow cytometry (reference value: 1.50 %); assay type: functional
[8] = test system: A549; assay: Induction of apoptosis in human A549 cells assessed as caspase-3-negative cells at IC50 incubated for 24 hrs by flow cytometry (reference value: 98.49 %); assay type: functional
[9] = test system: A549; assay: Induction of cell cycle arrest at G0/G1 phase in human A549 cells at IC50 incubated for 24 hrs by PI staining based flow cytometry (reference value: 9.17 %); assay type: functional
[10] = test system: A549; assay: Induction of cell cycle arrest at S phase in human A549 cells at IC50 incubated for 24 hrs by PI staining based flow cytometry (reference value: 59.62 %); assay type: functional
[11] = test system: A549; assay: Induction of cell cycle arrest at G2/M phase in human A549 cells at IC50 incubated for 24 hrs by PI staining based flow cytometry (reference value: 14.00 %); assay type: functional

Structure (SMILES)	IC50 at 24 h [1]	IC50 [2]	Activity [3]	Activity [4]	Activity [5]	Activity [6]	Activity [7]	Activity [8]	Activity [9]	Activity [10]	Activity [11]
CC(C)c1ccc(/C=N/NC(=O)Cc2csc3nc(-c4ccc(C#N)cc4)cn23)cc1	< 3.9 µM	15.5 µM	–	–	–	–	–	–	–	–	–
N#Cc1ccc(-c2cn3c(CC(=O)N/N=C/c4ccc(F)cc4)csc3n2)cc1	44.4 µM	101 µM	–	–	–	–	–	–	–	–	–
N#Cc1ccc(-c2cn3c(CC(=O)N/N=C/c4ccc(Oc5ccc(F)cc5)cc4)csc3n2)cc1	–	> 500 µM	–	–	–	–	–	–	–	–	–
N#Cc1ccc(Oc2ccc(/C=N/NC(=O)Cc3csc4nc(-c5ccc(C#N)cc5)cn34)cc2)cc1	–	> 500 µM	–	–	–	–	–	–	–	–	–
C#Cc1cccc(Nc2ncnc3cc(OCCOC)c(OCCOC)cc23)c1 [ERLOTINIB]	–	–	82.76%	12.28%	4.86%	0.09%	6.31%	93.1%	12.58%	54.85%	13.45%
N#Cc1ccc(-c2cn3c(CC(=O)N/N=C/c4ccc(N5CCOCC5)cc4)csc3n2)cc1	4.9 µM	12.2 µM	–	–	–	–	–	–	–	–	–
N#Cc1ccc(-c2cn3c(CC(=O)N/N=C/c4ccc(O)cc4)csc3n2)cc1	> 500 µM	23.8 µM	92.05%	0.03%	4.03%	3.89%	2.36%	97.42%	4.95%	32.15%	26.23%
N#Cc1ccc(-c2cn3c(CC(=O)N/N=C/c4ccc(-n5cncn5)cc4)csc3n2)cc1	> 500 µM	87.5 µM	–	–	–	–	–	–	–	–	–
N#Cc1ccc(-c2cn3c(CC(=O)N/N=C/c4ccc(N5CCCCC5)cc4)csc3n2)cc1	> 500 µM	221 µM	–	–	–	–	–	–	–	–	–
N#Cc1ccc(-c2cn3c(CC(=O)N/N=C/c4ccc([N+](=O)[O-])cc4)csc3n2)cc1	–	> 500 µM	–	–	–	–	–	–	–	–	–
N#Cc1ccc(-c2cn3c(CC(=O)N/N=C/c4ccc(N5CCCC5)cc4)csc3n2)cc1	–	> 500 µM	–	–	–	–	–	–	–	–	–
Cc1ccc(/C=N/NC(=O)Cc2csc3nc(-c4ccc(C#N)cc4)cn23)cc1	115 µM	17.7 µM	77.37%	16.74%	5.72%	0.17%	1.88%	97.98%	6.54%	62.99%	13.74%
N#Cc1ccc(-c2cn3c(CC(=O)N/N=C/c4ccc(Cl)cc4)csc3n2)cc1	–	> 500 µM	–	–	–	–	–	–	–	–	–
N#Cc1ccc(-c2cn3c(CC(=O)N/N=C/c4ccc(Oc5ccc([N+](=O)[O-])cc5)cc4)csc3n2)cc1	–	> 500 µM	–	–	–	–	–	–	–	–	–
CC(C)(C)c1ccc(/C=N/NC(=O)Cc2csc3nc(-c4ccc(C#N)cc4)cn23)cc1	66.5 µM	22.5 µM	79.17%	15.38%	5.13%	0.32%	4.14%	95.41%	3.91%	48.94%	20.92%
CS(=O)(=O)c1ccc(/C=N/NC(=O)Cc2csc3nc(-c4ccc(C#N)cc4)cn23)cc1	160 µM	133 µM	–	–	–	–	–	–	–	–	–
N#Cc1ccc(-c2cn3c(CC(=O)N/N=C/c4ccc(Oc5ccccc5)cc4)csc3n2)cc1	–	> 500 µM	–	–	–	–	–	–	–	–	–
N#Cc1ccc(-c2cn3c(CC(=O)N/N=C/c4ccc(-n5ccnc5)cc4)csc3n2)cc1	1.44 µM	16.9 µM	–	–	–	–	–	–	–	–	–
N#Cc1ccc(/C=N/NC(=O)Cc2csc3nc(-c4ccc(C#N)cc4)cn23)cc1	> 500 µM	43.7 µM	62.71%	22.33%	14.85%	0.11%	34.94%	63.66%	13.81%	43.76%	12.95%
CCn1c(-c2nonc2N)nc2c(C#CC(C)(C)O)ncc(OC[C@H]3CCCNC3)c21 [GSK-690693]	–	11.8 µM	36.36%	43%	18.78%	1.86%	24.29%	73.93%	30.35%	27.55%	13.5%
N#Cc1ccc(-c2cn3c(CC(=O)N/N=C/c4ccc(C(F)(F)F)cc4)csc3n2)cc1	–	> 500 µM	–	–	–	–	–	–	–	–	–
N#Cc1ccc(-c2cn3c(CC(=O)N/N=C/c4ccc(Br)cc4)csc3n2)cc1	–	> 500 µM	–	–	–	–	–	–	–	–	–
N#Cc1ccc(-c2cn3c(CC(=O)N/N=C/c4ccccc4)csc3n2)cc1	> 500 µM	51.3 µM	87.52%	8.7%	3.76%	0.02%	3.97%	95.65%	7.37%	38.28%	16.14%
N#Cc1ccc(-c2cn3c(CC(=O)N/N=C/c4ccc(-c5ccccn5)cc4)csc3n2)cc1	–	> 500 µM	–	–	–	–	–	–	–	–	–
CSc1ccc(/C=N/NC(=O)Cc2csc3nc(-c4ccc(C#N)cc4)cn23)cc1	> 500 µM	379 µM	–	–	–	–	–	–	–	–	–
N#Cc1ccc(-c2cn3c(CC(=O)N/N=C/c4ccc5ccccc5c4)csc3n2)cc1	–	> 500 µM	–	–	–	–	–	–	–	–	–
N#Cc1ccc(-c2cn3c(CC(=O)N/N=C/c4ccc(Oc5ccc(Cl)cc5)cc4)csc3n2)cc1	–	> 500 µM	–	–	–	–	–	–	–	–	–
N#Cc1ccc(-c2cn3c(CC(=O)N/N=C/c4ccc(Oc5ccc(Br)cc5)cc4)csc3n2)cc1	–	> 500 µM	–	–	–	–	–	–	–	–	–
COc1ccc(/C=N/NC(=O)Cc2csc3nc(-c4ccc(C#N)cc4)cn23)cc1	51.7 µM	14.3 µM	73.36%	21.98%	4.42%	0.24%	2.58%	97.08%	5.65%	68.81%	10.28%
